In one test the test system is cells. The test is described as follows: Cell Proliferation Assay (CellTiter Glo). The format is cell-based. Here is the method:
Firstly, the cells were seeded in 384-well cell culture plate and incubate overnight. The test compounds were added to the cell plate and incubated for 3-5 days. The cell plate was then detected using CellTiter Glo reagents.
In general terms: In ATP-based viability assays light output follows the ATP content of the culture.

The next test relates to p-ERK/total ERK. The test is described as follows: p-ERK/total ERK Cellular Assay. The format is cell-based. Here is the method: p-ERK/total ERK Cellular Assay
Cells were seeded in 384-well cell culture plate and incubated overnight. Test compounds were added to the cell plate and the plate was incubated for 2-6 hours. To detect p-ERK, the cell plate was used AlphaLISA SureFire Ultra p-ERK kit; to detect total ERK, the cell plate was used total ERK HTRF kit. The plate was read on the Envision.

In another test the target is Full length SHP2 enzyme (Homo sapiens (Human), UniProt Q06124). As to the kind of experiment: SHP2 Phosphatase Assays. The class given is biochemical. The following applies: full length SHP2 0.1 nM, 1 uM IRS-1 peptide, DiFMUP substrate, room temperature. As to the method: IC50 values were determined at room temperature in 384-well black polystyrene plate, using a final reaction volume of 15 μl and the following assay buffer conditions: 60 mM Hepes (pH=7.2), 75 mM NaCl, 75 mM KCl, and 1 mM EDTA, 0.05% P-20, 5 mM dithiothreitol (DTT). Full length SHP2 enzyme (diluted to 0.1 nM in reaction buffer) were co-incubated with 1 uM IRS-1 peptide and 0.01 nM to 10 μM compounds of the disclosure for 60 min. The surrogate substrate DiFMUP (5 μL, […]) was added, and incubated at rt for 60 min. The reaction was then quenched by the addition of 5 μL of a 40 μM solution of bpV(Phen). The fluorescence signal was monitored using a microplate reader (Envision, Perkin-Elmer) using excitation and emission wavelengths of 360 nm and 450 nm, respectively. The inhibitor dose-response curves were analyzed using normalized IC50 regression curve fitting with control-based normalization.
Full length SHP2 enzyme, sequence (Q06124 whole entry): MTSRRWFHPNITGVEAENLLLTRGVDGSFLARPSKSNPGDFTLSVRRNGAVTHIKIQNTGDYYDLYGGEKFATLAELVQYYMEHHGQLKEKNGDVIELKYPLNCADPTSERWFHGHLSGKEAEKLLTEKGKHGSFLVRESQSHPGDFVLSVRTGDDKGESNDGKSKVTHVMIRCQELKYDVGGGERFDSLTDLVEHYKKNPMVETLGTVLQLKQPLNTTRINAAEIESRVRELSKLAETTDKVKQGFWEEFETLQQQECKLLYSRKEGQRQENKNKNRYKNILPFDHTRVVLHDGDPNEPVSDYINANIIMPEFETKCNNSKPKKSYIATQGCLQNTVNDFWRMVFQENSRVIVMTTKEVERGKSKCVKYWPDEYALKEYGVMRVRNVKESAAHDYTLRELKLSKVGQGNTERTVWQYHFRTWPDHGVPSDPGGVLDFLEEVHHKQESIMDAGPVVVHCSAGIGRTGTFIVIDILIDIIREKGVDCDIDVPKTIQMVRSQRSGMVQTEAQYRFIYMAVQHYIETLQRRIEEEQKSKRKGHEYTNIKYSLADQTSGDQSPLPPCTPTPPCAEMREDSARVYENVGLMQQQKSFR

Where [1] appears, read: 3-5 days incubation, CellTiter Glo, read-out: IC50.
Setting [2] is: p-ERK (AlphaLISA SureFire Ultra) / total ERK (HTRF), 2-6 hours incubation, read-out: IC50.

Like-named read-outs stand apart in the source and are kept apart here.

Data on 15 compounds can be found in patent US10561655B2 (SYNBLia Therapeutics, Inc., priority 2018, dated 2020).

A word on the IC50: it is the point on the concentration scale where inhibition reaches its midpoint. For `C[C@@H]1OCC2(CCN(c3ncc(Sc4ccnc(F)c4F)[nH]c3=O)CC2)[C@@H]1N` [Compound 84], the figures for the IC50 in the test on cells (setting [1]), in the test with p-ERK/total ERK (setting [2]) and against Full length SHP2 enzyme were below 1000 nM, below 100 nM and at most 50 nM, respectively.

On to `C[C@@H]1OCC2(CCN(c3ncc(Sc4ccnc(F)c4Cl)[nH]c3=O)CC2)[C@@H]1N` [Compound 83, 3-((3S,4S)-4-amino-3-methyl-2-oxa-8-azaspiro[4.5]decan-8-yl)-6-((3-chloro-2-fluoropyridin-4-yl)thio)pyrazin-2(1H)-one], for which the values for the IC50 in the test on cells (setting [1]), with p-ERK/total ERK (setting [2]) and at Full length SHP2 enzyme were below 1000 nM, below 100 nM and at most 50 nM, respectively.

Consider `CC1(CN)CCN(c2nc3[nH]nc(Oc4cccc(Cl)c4Cl)c3c(=O)[nH]2)CC1` [Compound 35, 6-(4-(aminomethyl)-4-methylpiperidin-1-yl)-3-(2,3-dichlorophenoxy)-1,5-dihydro-4H-pyrazolo[3,4-d]pyrimidin-4-one], for which the IC50 with p-ERK/total ERK (setting [2]) is below 500 nM; against Full length SHP2 enzyme, at most 50 nM.

As for `C[C@@H]1OCC2(CCN(c3ncc(Sc4ccnc(Cl)c4Cl)[nH]c3=O)CC2)[C@@H]1N` [Compound 81, 3-((3S,4S)-4-amino-3-methyl-2-oxa-8-azaspiro[4.5]decan-8-yl)-6-((2,3-dichloropyridin-4-yl)thio)pyrazin-2(1H)-one], the figures for the IC50 in the test on cells (setting [1]), in the test on p-ERK/total ERK (setting [2]) and on Full length SHP2 enzyme were below 1000 nM, below 100 nM and at most 50 nM, respectively.

Consider `COc1cccc(Sc2cnc(N3CCC4(CC3)CO[C@@H](C)[C@H]4N)c(=O)[nH]2)c1Cl` [Compound 79, 3-((3S,4S)-4-amino-3-methyl-2-oxa-8-azaspiro[4.5]decan-8-yl)-6-((2-chloro-3-methoxyphenyl)thio)pyrazin-2(1H)-one], for which the IC50 is below 100 nM with p-ERK/total ERK (setting [2]) and at most 50 nM against Full length SHP2 enzyme.

Regarding `N[C@@H]1COCC12CCN(c1ncc(Sc3cccc(Cl)c3Cl)[nH]c1=O)CC2` [Compound 73, (S)-3-(4-amino-2-oxa-8-azaspiro[4.5]decan-8-yl)-6-((2,3-dichlorophenyl)thio)pyrazin-2(1H)-one], the IC50 in the test with cells (setting [1]) is below 5000 nM; with p-ERK/total ERK (setting [2]), below 100 nM; against Full length SHP2 enzyme it was at most 50 nM.

Take `CC1(CN)CCN(c2ncc(Sc3cccc(NC(=O)c4c(O)nc5sccn5c4=O)c3Cl)[nH]c2=O)CC1` [Compound 31, N-(3-((5-(4-(aminomethyl)-4-methylpiperidin-1-yl)-6-oxo-1,6-dihydropyrazin-2-yl)thio)-2-chlorophenyl)-7-hydroxy-5-oxo-5H-thiazolo[3,2-a]pyrimidine-6-carboxamide]: the IC50 is below 5000 nM with cells (setting [1]), below 100 nM with p-ERK/total ERK (setting [2]) and at most 50 nM against Full length SHP2 enzyme.

As for `NC1COCC12CCN(c1ncc(Sc3cccc(Cl)c3Cl)[nH]c1=O)CC2` (stereo not shown) [Compound 10, 3-(4-amino-2-oxa-8-azaspiro[4.5]decan-8-yl)-6-((2,3-dichlorophenyl)thio)pyrazin-2(1H)-one], the IC50 with cells was below 5000 nM; in the test on p-ERK/total ERK, below 100 nM.

Take `CC1(CN)CCN(c2ncc(Sc3cccc(NC(=O)c4c(O)nc5ccccn5c4=O)c3Cl)[nH]c2=O)CC1` [Compound 29, N-(3-((5-(4-(aminomethyl)-4-methylpiperidin-1-yl)-6-oxo-1,6-dihydropyrazin-2-yl)thio)-2-chlorophenyl)-2-hydroxy-4-oxo-4H-pyrido[1,2-a]pyrimidine-3-carboxamide]: the IC50 in the test on cells (setting [1]) was below 5000 nM; in the test on p-ERK/total ERK (setting [2]), below 100 nM; against Full length SHP2 enzyme, at most 50 nM.

With `C[C@@H]1OCC2(CCN(c3ncc(Sc4cccc(F)c4F)[nH]c3=O)CC2)[C@@H]1N` [Compound 82, 3-((3S,4S)-4-amino-3-methyl-2-oxa-8-azaspiro[4.5]decan-8-yl)-6-((2,3-difluorophenyl)thio)pyrazin-2(1H)-one], the IC50 is below 5000 nM in the test with cells (setting [1]), below 100 nM in the test on p-ERK/total ERK (setting [2]) and at most 50 nM against Full length SHP2 enzyme.

On to `CC1(CN)CCN(c2ncc(Sc3cccc(Cl)c3Cl)[nH]c2=O)CC1` [Compound 2, 3-(4-(aminomethyl)-4-methylpiperidin-1-yl)-6-((2,3-dichlorophenyl)thio)pyrazin-2(1H)-one], for which the results for the IC50 in the test on cells, in the test with p-ERK/total ERK and against Full length SHP2 enzyme were below 5000 nM, below 500 nM and at most 50 nM, respectively.

As for `C[C@@H]1OCC2(CCN(c3ncc(Sc4cccc(Cl)c4Cl)[nH]c3=O)CC2)[C@@H]1N` [Compound 14], the results for the IC50 with cells (setting [1]), in the test on p-ERK/total ERK (setting [2]) and against Full length SHP2 enzyme were below 1000 nM, below 100 nM and at most 50 nM, respectively.

Turning to `CC1(CN)CCN(c2nc3[nH]nc(Nc4cccc(Cl)c4Cl)c3c(=O)[nH]2)CC1` [Compound 34, 6-(4-(aminomethyl)-4-methylpiperidin-1-yl)-3-((2,3-dichlorophenyl)amino)-1,5-dihydro-4H-pyrazolo[3,4-d]pyrimidin-4-one], the IC50 in the test on p-ERK/total ERK (setting [2]) is below 500 nM; against Full length SHP2 enzyme it was at most 50 nM.

Turning to `COc1nccc(Sc2cnc(N3CCC4(CC3)CO[C@@H](C)[C@H]4N)c(=O)[nH]2)c1Cl` [Compound 80, 3-((3S,4S)-4-amino-3-methyl-2-oxa-8-azaspiro[4.5]decan-8-yl)-6-((3-chloro-2-methoxypyridin-4-yl)thio)pyrazin-2(1H)-one], the IC50 with p-ERK/total ERK (setting [2]) is below 100 nM; against Full length SHP2 enzyme, at most 50 nM.

Turning to `C[C@@H]1OCC2(CCN(c3ncc(Sc4cccc(F)c4Cl)[nH]c3=O)CC2)[C@@H]1N` [Compound 109, 3-((3S,4S)-4-amino-3-methyl-2-oxa-8-azaspiro[4.5]decan-8-yl)-6-((2-chloro-3-fluorophenyl)thio)pyrazin-2(1H)-one], the figures for the IC50 in the test with cells (setting [1]), in the test with p-ERK/total ERK (setting [2]) and at Full length SHP2 enzyme were below 5000 nM, below 100 nM and at most 50 nM, respectively.
